Measured values published in patent publication US11028078B2 (The Johns Hopkins University, priority 2011, dated 2021).
pIC50: −log10 of the molar value.

Assays:
HUVEC = HUVEC proliferation assay ([3H]thymidine incorporation); type: cell-based, human; conditions: for Proliferation (IC50/IC50 Itra) / pIC50: HUVEC; for Proliferation (IC50/IC50 Itra): IC50 of analog relative to IC50 of itraconazole; for pIC50: Homo sapiens, Table 5, read-out: Activity in HUVEC Proliferation IC50; for inhibition of HUVEC proliferation: data not shown
Method: The activity of the analogs against HUVEC proliferation, an in vitro proxy for angiogenesis inhibition (Table 3) was analyzed. […]
Pooled HUVEC (Lonza) were grown in EGM-2 bullet kit media (Lonza) and used at passage eight or lower. The proliferation assays were conducted as previously described (Nacev, B.; Low, W. K.; Huang, Z.; Su, T.; Su, Z.; Alkuraya, H.; Kasuga, D.; Sun, W.; Trager, M.; Braun, M.; Fischer, G.; Zhang, K.; Liu, J. O., Acalcineurin-independent mechanism of angiogenesis inhibition by anon-immunosuppressive Cyclosporin Aanalog. J. Pharmacol. Exp. Ther. 2011, DOI:10.1124/jpet.111.18085).

[1] = tested on: MB cultures derived from Ptch−/+; p53−/− mice; experiment: Medulloblastoma (MB) proliferation assay; type: cell-based, mouse; conditions: for MB Proliferation (IC50/IC50 Itra): mouse medulloblastoma cultures, 96 h, relative to itraconazole; for inhibition of MB proliferation: FIG. 9A
Text: These cultures were derived from Ptch^−/+; p53^−/− mice that spontaneously develop medulloblastoma associated with ligand independent Hh pathway activation.
MB cultures were derived from mouse Ptch^−/+; p53^−/− MB grown as hind-flank allografts in nude mice (Harlan). Briefly, tumors were mechanically disrupted and made into single cell suspensions by two passages through a 70 μm nylon filter. Cells were pelleted by centrifugation and resuspended in PBS pH 7.4 twice. The cell suspension was then subjected to centrifugation at 1000×g for 25 min over a ficoll gradient. The viable cell layer formed at the ficoll boundary was then collected, suspended in PBS, and pelleted by centrifugation. The resulting pellet was then suspended and cultured as “neurospheres” in Neurobasal Media-A supplemented with retinoic acid deficient B-27 extract (NBMedia). Cells were cultured for three passages, with neurospheres disaggregated using Accumax (Innovative Cell Technologies) between passages.
Cultured MB neurospheres were disaggregated as described and 1×10^4 cells were seeded into wells of a 96-well assay plate in NBMedia and exposed to multiple analogue concentrations: Relative cell numbers following a 96-h incubation were quantified by CellTiter 96® AQueous One Solution Cell Proliferation Assay (Promega) per manufacturer's recommendations using a SpectraMax M2e spectrophotometer and SoftMax Pro software (Molecular Devices). Data was analyzed using Prism5 (GraphPad Software) and IC50 and IC90 values were determined from dose-response curves fitted to mean corrected absorbance normalized to control treatment.

VEGFR2 = VEGFR2 glycosylation in HUVEC (Western blot scoring); type: cell-based, human; conditions: for Glycosylation (2 μM dose): VEGFR2 hypoglycosylation score in HUVEC, 24 h; for VEGFR2 glycosylation defect: data not shown
Method: VEGFR2 hypoglycosylation was scored either robust (++), intermediate (+), or absent (−) (FIG. 6).
HUVEC were seeded at 5×10^4 per well of a 6-well plate in 3 mL of media. After an overnight recovery, the media was replaced with 2 mL fresh media and the analogs were added from 200× stocks in DMSO. Following a 24-h incubation, the media was aspirated and 2×SDS sample buffer was added to the cells which were incubated on ice for 10 min and then boiled for 10 min. […] Following three washes in TBS-T, the membrane was incubated with anti-rabbit horseradish peroxidase conjugated IgG (GE Healthcare) (1:5000-1:10000 dilution) in 1% BSA in TBS-T. The membranes were washed three times in TBS-T, incubated for 1-5 minutes with ECL substrate (Immobilon Wester, Milipore) and visualized (Kodak Image Staion 440 CF).

Gli1 transcript = experiment: Quantification of Gli1 transcript by TaqMan analysis in MB cells (Hh pathway); type: cell-based, mouse; conditions: for Gli I Inhibition (IC90 Prolif. dose): Gli1 transcript fold induction score, MB cells exposed 24 h at the IC90 for MB proliferation; for inhibition of Gli1 transcript levels: established MB cultures, FIG. 9B
Text: Inhibitors of the Hh pathway are known to inhibit MB cell proliferation. However, MB cell proliferation is also affected by drugs with targets other than Hh signaling.
Following drug exposure, cells were washed in PBS and pelleted by centrifugation at 300×g. Cell pellets were lysed in Trizol reagent (Invitrogen). Total RNA was separated and collected in the aqueous phase following centrifugation of lysate in the presence of chloroform. Total RNA was ethanol precipitated and purified over RNeasy Mini Kit (Qiagen) filter columns per manufacturer's recommendations. Transcript levels were quantified using gene-specific TaqMan primer/probe sets and the StepOne Plus Real-Time PCR system (Applied Biosystems) on cDNA reverse transcribed using the QuantiTect Reverse Transcription Kit (Qiagen) per manufacturers' recommendations. Results were quantified using StepOne Plus software v2.1 (Applied Biosystems) and were expressed as fold induction relative to control samples using the A ΔCt (2^−ΔΔCt) method with actin as an internal control. The primer/probe set (Applied Biosystems) for TaqMan PCR for mouse Gli-1 was Mm00494645_m1, and for mouse actin was Mm00607939_s1.

| Compound | Proliferation (IC50/IC50 Itra) (HUVEC) | MB Proliferation (IC50/IC50 Itra) [1] | Glycosylation (2 μM dose) (VEGFR2) | Gli I Inhibition (IC90 Prolif. dose) (Gli1 transcript) | also measured |
| --- | --- | --- | --- | --- | --- |
| Cn1ncn(-c2ccc(N3CCN(c4ccc(OC[C@@H]5CO[C@@](Cn6cncn6)(c6ccc(Cl)cc6Cl)O5)cc4)CC3)cc2)c1=O (relative stereo) [Compound 7a, cis-(2S,4R)-4-[4-[4-[4-[[2-(2,4-Dichlorophenyl)-2-(UH-1,2,4-triazol-1-ylmethyl)-1,3-dioxolan-4-yl]methoxy]phenyl]-lpiperazinyl]phenyl]-2,4-dihydro-2-methyl-3H-1,2,4-triazol-3-one] | 4.00 | 2.71 | − | − (≥0.45) |  |
| CCn1ncn(-c2ccc(N3CCN(c4ccc(OC[C@@H]5CO[C@@](Cn6cncn6)(c6ccc(Cl)cc6Cl)O5)cc4)CC3)cc2)c1=O (relative stereo) [Compound 7b, cis-(2S,4R)-4-[4-[4-[4-[[2-(2,4-Dichlorophenyl)-2-(1H-1,2,4-triazol-1-ylmethyl)-1,3-dioxolan-4-yl]methoxy]phenyl]-lpiperazinyl]phenyl]-2,4-dihydro-2-ethyl-3H-1,2,4-triazol-3-one] | 2.94 | 1.62 | − | − (≥0.45) |  |
| CCCn1ncn(-c2ccc(N3CCN(c4ccc(OC[C@@H]5CO[C@@](Cn6cncn6)(c6ccc(Cl)cc6Cl)O5)cc4)CC3)cc2)c1=O (relative stereo) [Compound 7c, cis-(2S,4R)-4-[4-[4-[4-[[2-(2,4-Dichlorophenyl)-2-(1H-1,2,4-triazol-1-ylmethyl)-1,3-dioxolan-4-yl]methoxy]phenyl]-lpiperazinyl]phenyl]-2,4-dihydro-2-propyl-3H-1,2,4-triazol-3-one] | 1.06 | 1.01 | + | ++ (≤0.15) |  |
| CC(C)n1ncn(-c2ccc(N3CCN(c4ccc(OC[C@@H]5CO[C@@](Cn6cncn6)(c6ccc(Cl)cc6Cl)O5)cc4)CC3)cc2)c1=O (relative stereo) [Compound 7d, cis-(2S,4R)-4-[4-[4-[4-[[2-(2,4-Dichlorophenyl)-2-(1H-1,2,4-triazol-1-ylmethyl)-1,3-dioxolan-4-yl]methoxy]phenyl]-lpiperazinyl]phenyl]-2,4-dihydro-2-isopropyl-3H-1,2,4-triazol-3-one] | 2.18 | 1.06 | − | − (≥0.45) |  |
| CCCCn1ncn(-c2ccc(N3CCN(c4ccc(OC[C@@H]5CO[C@@](Cn6cncn6)(c6ccc(Cl)cc6Cl)O5)cc4)CC3)cc2)c1=O (relative stereo) [Compound 7e, cis-(2S,4R)-4-[4-[4-[4-[[2-(2,4-Dichlorophenyl)-2-(1H-1,2,4-triazol-1-ylmethyl)-1,3-dioxolan-4-yl]methoxy]phenyl]-lpiperazinyl]phenyl]-2,4-dihydro-2-butyl-3H-1,2,4-triazol-3-one] | 2.10 | 0.70 | − | − (≥0.45) |  |
| CC(C)Cn1ncn(-c2ccc(N3CCN(c4ccc(OC[C@@H]5CO[C@@](Cn6cncn6)(c6ccc(Cl)cc6Cl)O5)cc4)CC3)cc2)c1=O (relative stereo) [Compound 7f, cis-(2S,4R)-4-[4-[4-[4-[[2-(2,4-Dichlorophenyl)-2-(H,2,4-triazol-1-ylmethyl)-1,3-dioxolan-4-yl]methoxy]phenyl]-lpiperazinyl]phenyl]-2,4-dihydro-2-isobutyl-3H-1,2,4-triazol-3-one] | 1.32 | 0.86 | ++ | − (≥0.45) |  |
| CCCC(C)n1ncn(-c2ccc(N3CCN(c4ccc(OC[C@@H]5CO[C@@](Cn6cncn6)(c6ccc(Cl)cc6Cl)O5)cc4)CC3)cc2)c1=O (relative stereo) [Compound 7h, cis-(2S,4R)-4-[4-[4-[4-[[2-(2,4-Dichlorophenyl)-2-(1H-1,2,4-triazol-1-ylmethyl)-1,3-dioxolan-4-yl]methoxy]phenyl]-lpiperazinyl]phenyl]-2,4-dihydro-2-(1-methylbutyl)-3H-1,2,4-triazol-3-one] | 0.75 | 0.38 | ++ | ++ (≤0.15) |  |
| O=C(c1ccccc1)c1ccc(OCCCCCCn2ncn(-c3ccc(N4CCN(c5ccc(OCC6COC(Cn7cncn7)(c7ccc(Cl)cc7Cl)O6)cc5)CC4)cc3)c2=O)cc1 [Compound 7q, cis-(2S,4R)-4-[4-[4-[4-[[2-(2,4-Dichlorophenyl)-2-(1H-1,2,4-triazol-1-ylmethyl)-1,3-dioxolan-4-yl]methoxy]phenyl]-piperazinyl]phenyl]-2,4-dihydro-2-(6-(4-benzoylphenoxy)hexyl)-3H-1,2,4-triazol-3-one] |  | 0.8 | − | − (≥0.45) |  |
| CCC(C)n1ncn(-c2ccc(N3CCN(c4ccc(OCC5CO[C@@](Cn6cncn6)(c6ccc(Cl)cc6Cl)O5)cc4)CC3)cc2)c1=O (stereo partly shown) [Compound 46a] |  |  |  |  | pIC50 (HUVEC): 6.81 |
| CCC(C)n1ncn(-c2ccc(N3CCN(c4ccc(OCC5CO[C@](Cn6cncn6)(c6ccc(Cl)cc6Cl)O5)cc4)CC3)cc2)c1=O (stereo partly shown) [Compound 46b] |  |  |  |  | pIC50 (HUVEC): 6.63 |
| CCC(C)n1ncn(-c2ccc(N3CCN(c4ccc(OCC5CO[C@@](Cn6cncn6)(c6ccc(Cl)cc6Cl)O5)nc4)CC3)c(C)c2)c1=O (stereo partly shown) [Compound 47a] |  |  |  |  | pIC50 (HUVEC): 6.81 |
| CS(=O)(=O)c1ccc(C(=O)Nc2ccc(Cl)c(-c3ccccn3)c2)c(Cl)c1 [GDC-0449, reference compound] |  |  |  |  | inhibition of MB proliferation [1]: Dose-dependent inhibition; inhibition of Gli1 transcript levels (Gli1 transcript): Dose-dependent inhibition |
| CC[C@@H](C)n1ncn(-c2ccc(N3CCN(c4ccc(OCC5CO[C@@](Cn6cncn6)(c6ccc(Cl)cc6Cl)O5)cc4)CC3)cc2)c1=O (stereo partly shown) [Itraconazole C, reference compound] |  |  |  |  | pIC50 (HUVEC): 6.82 |
| CC(=O)N1CCN(c2ccc(OCC3COC(Cn4ccnc4)(c4ccc(Cl)cc4Cl)O3)cc2)CC1 (stereo not shown) [ketoconazole, reference compound] |  |  |  |  | inhibition of HUVEC proliferation (HUVEC): do not inhibit proliferation; VEGFR2 glycosylation defect (VEGFR2): fail to induce the VEGFR2 glycosylation defect |
| CC(C)N1CCN(c2ccc(OCC3COC(Cn4cncn4)(c4ccc(Cl)cc4Cl)O3)cc2)CC1 (stereo not shown) [terconazole, reference compound] |  |  |  |  | inhibition of HUVEC proliferation (HUVEC): do not inhibit proliferation; VEGFR2 glycosylation defect (VEGFR2): fail to induce the VEGFR2 glycosylation defect |
| HhAntag [reference compound] |  |  |  |  | inhibition of MB proliferation [1]: Dose-dependent inhibition; inhibition of Gli1 transcript levels (Gli1 transcript): Dose-dependent inhibition |
